Data published in article PMC7944402, “Resin-acid derivatives bind to multiple sites on the voltage-sensor domain of the Shaker potassium channel” (The Journal of General Physiology, 2021).

Experiments:
[1] = target: T1, Shaker KV channel R362Q (Drosophila melanogaster, UniProt P08510, DEL6-46/R362Q); details: Fig. 1 E; ref Ottosson et al., 2017; Silverå Ejneby et al., 2018; cited from earlier work
T1 construct: expressed in transfected cells; host or cells: Xenopus laevis oocytes (RNA injection)
T1 sequence (P08510 other isoform, or with tags, fused parts or gaps DEL6-46/R362Q): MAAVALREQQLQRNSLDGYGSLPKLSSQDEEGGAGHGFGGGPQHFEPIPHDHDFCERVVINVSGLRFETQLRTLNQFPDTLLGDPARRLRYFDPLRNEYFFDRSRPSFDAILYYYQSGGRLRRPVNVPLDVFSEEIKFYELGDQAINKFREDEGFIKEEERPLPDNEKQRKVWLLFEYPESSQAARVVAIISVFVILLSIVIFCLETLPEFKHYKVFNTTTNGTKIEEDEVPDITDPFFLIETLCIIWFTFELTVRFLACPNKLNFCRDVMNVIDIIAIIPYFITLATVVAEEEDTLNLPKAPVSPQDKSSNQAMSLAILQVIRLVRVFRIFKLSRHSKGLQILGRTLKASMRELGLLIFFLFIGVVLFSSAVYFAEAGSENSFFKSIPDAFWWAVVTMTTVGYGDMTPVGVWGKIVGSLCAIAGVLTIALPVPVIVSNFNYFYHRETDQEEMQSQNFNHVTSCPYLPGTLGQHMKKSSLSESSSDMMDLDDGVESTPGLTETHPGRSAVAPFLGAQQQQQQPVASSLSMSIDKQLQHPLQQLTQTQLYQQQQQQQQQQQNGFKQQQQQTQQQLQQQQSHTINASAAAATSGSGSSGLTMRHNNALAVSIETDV

[2] = target: T2, Shaker KV channel R362Q/W454A/F416A (Drosophila melanogaster, UniProt P08510, DEL6-46/F416A/R362Q/W454A); assay: Two-electrode voltage clamp in Xenopus oocytes: R362Q/W454A/F416A; type: cell-based; details: 100 μM, pH 7.4, R362Q/W454A/F416A
T2 construct: expressed in transfected cells; host or cells: Xenopus laevis oocytes (RNA injection)
T2 sequence (P08510 other isoform, or with tags, fused parts or gaps DEL6-46/R362Q/F416A/W454A): as the sequence (P08510 other isoform, or with tags, fused parts or gaps DEL6-46/R362Q) above, with F375A, W413A counted along it
Source text: (§1) The Shaker H4 channel (GenBank accession no. NM_167595.3; [Kamb et al., 1987]), with removed N-type inactivation due to a Δ6-46 deletion (ShH4IR, in Bluescript II KS(+) plasmid; [Hoshi et al., 1990]), is referred to as the WT Shaker KV channel. Addition of two positively charged arginines (M356R/A359R) at the extracellular top of the voltage sensor increases the effect of charged lipophilic compounds ([Ottosson et al., 2014], [2015], [2017]). […] However, for the resin-acid derivatives studied in the present investigation, R362 reduced the effect. Therefore, we specifically refer to the two added arginines just outside S4 (M356R/A359R) as the 2R motif. Mutations were introduced with site-directed mutagenesis and verified with sequencing as described previously ([Börjesson et al., 2010]). RNA injection and oocyte handling were performed as before ([Börjesson et al., 2010]; [Ottosson et al., 2015]). All animal experiments were approved by the Linköping’s local Animal Care and Use Committee.
(§2) Electrophysiological experiments were made 1–6 d after RNA injection. K^+ currents were measured with the two-electrode voltage-clamp technique (GeneClamp 500B amplifier; Axon Instruments) as described previously ([Ottosson et al., 2015]; [Silverå Ejneby et al., 2018]). […]
(§3) The conductance, G(V), was calculated as G(V)=I/(V−VK), (1) where I is the steady-state current measured at the end of each test-voltage sweep (100 ms after onset; Clampfit 10.5; Molecular Devices), V is the absolute membrane voltage, and VK is the reversal potential for K^+ ions (set to −80 mV). […] The resin-acid–induced G(V) shift was calculated as V1/2 (compound) − V1/2 (control). The relative change in GMAX was calculated as GMAX (compound) / GMAX (control). The concentration dependence for the G(V) shifts was calculated as ΔV= ΔVMAX/(1 +EC50/c), (3) where ΔV is the voltage shift, ΔVMAX is the voltage shift at saturating concentration, c is the concentration of the tested compound, and EC50 is the concentration at which half-maximum response occurs.

[3] = target: T3, Shaker KV channel R362Q/R365Q/W454A/F280I (Drosophila melanogaster, UniProt P08510, DEL6-46/F280I/R362Q/R365Q/W454A); assay: Two-electrode voltage clamp in Xenopus oocytes: R362Q/R365Q/W454A/F280I; type: cell-based; details: 100 μM, pH 7.4, R362Q/R365Q/W454A/F280I
T3 construct: expressed in transfected cells; host or cells: Xenopus laevis oocytes (RNA injection)
T3 sequence (P08510 other isoform, or with tags, fused parts or gaps DEL6-46/F280I/R362Q/R365Q/W454A): as the sequence (P08510 other isoform, or with tags, fused parts or gaps DEL6-46/R362Q) above, with F239I, R324Q, W413A counted along it
Source text: as §1, with “Mutations were introduced with site-directed mutagenesis and verified with sequencing as described previously ([Börjesson et al., 2010]). RNA injection and oocyte handling were performed as before ([Börjesson et al., 2010]; [Ottosson et al., 2015]). All animal experiments were approved by the Linköping’s local Animal Care and Use Committee.” left out
as §2
The conductance, G(V), was calculated as G(V)=I/(V−VK), (1) where I is the steady-state current measured at the end of each test-voltage sweep (100 ms after onset; Clampfit 10.5; Molecular Devices), V is the absolute membrane voltage, and VK is the reversal potential for K^+ ions (set to −80 mV). […] The resin-acid–induced G(V) shift was calculated as V1/2 (compound) − V1/2 (control). The relative change in GMAX was calculated as GMAX (compound) / GMAX (control). […]

[4] = target: T4, Shaker KV channel W454A (Drosophila melanogaster, UniProt P08510, DEL6-46/W454A); assay: Two-electrode voltage clamp in Xenopus oocytes: W454A; type: cell-based; details: 100 μM, pH 7.4, W454A
T4 construct: expressed in transfected cells; host or cells: Xenopus laevis oocytes (RNA injection)
T4 sequence (P08510 other isoform, or with tags, fused parts or gaps DEL6-46/W454A): as the sequence (P08510 other isoform, or with tags, fused parts or gaps DEL6-46/R362Q) above, with Q321R, W413A counted along it
Source text: as §1, §2, §3

[5] = target: T5, Shaker KV channel with the 2R motif (M356R/A359R) (Drosophila melanogaster, UniProt P08510, A359R/DEL6-46/M356R); assay: Two-electrode voltage clamp in Xenopus oocytes: 2R motif channel; type: cell-based
T5 construct: expressed in transfected cells; host or cells: Xenopus laevis oocytes (RNA injection)
T5 sequence (P08510 other isoform, or with tags, fused parts or gaps DEL6-46/M356R/A359R): as the sequence (P08510 other isoform, or with tags, fused parts or gaps DEL6-46/R362Q) above, with M315R, A318R, Q321R counted along it
Source text: (§4) The Shaker H4 channel (GenBank accession no. NM_167595.3; [Kamb et al., 1987]), with removed N-type inactivation due to a Δ6-46 deletion (ShH4IR, in Bluescript II KS(+) plasmid; [Hoshi et al., 1990]), is referred to as the WT Shaker KV channel. […] Therefore, we specifically refer to the two added arginines just outside S4 (M356R/A359R) as the 2R motif. Mutations were introduced with site-directed mutagenesis and verified with sequencing as described previously ([Börjesson et al., 2010]). RNA injection and oocyte handling were performed as before ([Börjesson et al., 2010]; [Ottosson et al., 2015]). All animal experiments were approved by the Linköping’s local Animal Care and Use Committee.
(§5) Electrophysiological experiments were made 1–6 d after RNA injection. K^+ currents were measured with the two-electrode voltage-clamp technique (GeneClamp 500B amplifier; Axon Instruments) as described previously ([Ottosson et al., 2015]; [Silverå Ejneby et al., 2018]). The amplifier’s leak compensation was used, and the currents were low-pass filtered at 5 kHz. The control solution contained (in mM) 88 NaCl, 1 KCl, 15 HEPES, 0.4 CaCl2, and 0.8 MgCl2, and pH was set with NaOH. All experiments were made at room temperature (20°C–23°C). The holding potential was set to −80 mV (or −100 mV if the mutant was not fully closed at −80 mV).
(§6) Stock solutions were stored at −20°C and diluted in control solution just before experiments. The test solution was added to the oocyte bath manually with a syringe. […] To make sure all Wu50 molecules were negatively charged, the pH of the control solution was set to 9.0 before the experiments.
(§7) The conductance, G(V), was calculated as G(V)=I/(V−VK), (1) where I is the steady-state current measured at the end of each test-voltage sweep (100 ms after onset; Clampfit 10.5; Molecular Devices), V is the absolute membrane voltage, and VK is the reversal potential for K^+ ions (set to −80 mV). The conductance was fitted with a Boltzmann equation (GraphPad Prism 5; GraphPad Software, Inc.) GK(V)=GMAX/{1+exp[(V½−V)/s]}, (2) where GMAX is the amplitude (maximal conductance) of the curve, V is the absolute membrane voltage, V1/2 is the midpoint, and s is the slope. The resin-acid–induced G(V) shift was calculated as V1/2 (compound) − V1/2 (control). The relative change in GMAX was calculated as GMAX (compound) / GMAX (control). The concentration dependence for the G(V) shifts was calculated as ΔV= ΔVMAX/(1 +EC50/c), (3) where ΔV is the voltage shift, ΔVMAX is the voltage shift at saturating concentration, c is the concentration of the tested compound, and EC50 is the concentration at which half-maximum response occurs.

[6] = target: T6, Shaker KV channel R362Q/R365Q (Drosophila melanogaster, UniProt P08510, DEL6-46/R362Q/R365Q); assay: Two-electrode voltage clamp in Xenopus oocytes: R362Q/R365Q; type: cell-based; details: 100 μM, pH 7.4, R362Q/R365Q
T6 construct: expressed in transfected cells; host or cells: Xenopus laevis oocytes (RNA injection)
T6 sequence (P08510 other isoform, or with tags, fused parts or gaps DEL6-46/R362Q/R365Q): as the sequence (P08510 other isoform, or with tags, fused parts or gaps DEL6-46/R362Q) above, with R324Q counted along it
Source text: as §1, §2, §3

[7] = target: T1, Shaker KV channel R362Q; assay: Two-electrode voltage clamp in Xenopus oocytes: R362Q; type: cell-based; details: 100 μM, pH 7.4, R362Q
Source text: as §1, §2, §3

[8] = target: T7, Shaker KV channel M356R/A359R/R362Q (Drosophila melanogaster, UniProt P08510, A359R/DEL6-46/M356R/R362Q); assay: Two-electrode voltage clamp in Xenopus oocytes: 2R motif/R362Q; type: cell-based; details: 100 μM, pH 7.4, M356R/A359R/R362Q
T7 construct: expressed in transfected cells; host or cells: Xenopus laevis oocytes (RNA injection)
T7 sequence (P08510 other isoform, or with tags, fused parts or gaps DEL6-46/M356R/A359R/R362Q): as the sequence (P08510 other isoform, or with tags, fused parts or gaps DEL6-46/R362Q) above, with M315R, A318R counted along it
Source text: as §1, §5
as §6, with “the experiments. This pH change had only small effects on channel kinetics and the G(V) relation.” for “the experiments.”
as §3

[9] = tested on: Shaker KV channel binding sites (S3/S4, S4/pore, residual); assay: Additive model of site contributions to the G(V) shift (least squares fit); design: species or system Drosophila melanogaster
Source text: We also considered a reduced dataset of five mutants for Wu50 to make the comparison between the two compounds equitable (Table S1).
The G(V) shift for each mutant was expressed as a sum of contribution from the various sites: ΔVmodel=ΔVS3/S4+ΔVS4/pore+ΔVResidual, (4) where ΔVS3/S4 is the G(V) shift due to compound binding to the S3/S4 site, ΔVS4/pore is the G(V) shift due to compound binding to the S4/pore site, and ΔVResidual is the G(V) shift due to compound binding to other sites, including the top-VSD site.
Following the assumptions based on observations made using MD simulations, ΔVS3/S4 was set to 0 if the 2R motif was missing (i.e., in the WT channel), ΔVS4/pore could adopt one of four values depending on the type of mutation (R362/W454 = WT configuration, R362Q, W454A, or R362Q/W454A), and ΔVResidual was assumed to be the same for all mutants.
The model further assumed that there is a residual effect that can be due to binding to the VSD-top site or to any other unidentified site and that the contributions due to binding to the S3/S4 site and the S4/pore site depend upon mutations at this site.

[10] = target: T8, WT Shaker KV channel (ShH4IR) (Drosophila melanogaster, UniProt P08510, DEL6-46); assay: Two-electrode voltage clamp of Shaker KV channels expressed in Xenopus laevis oocytes: WT; type: cell-based; details: for EC50: WT, pH 7.4, concentration-response (Eq. 3), read-out: EC50 of the G(V) shift (apparent affinity)
T8 construct: expressed in transfected cells; host or cells: Xenopus laevis oocytes (RNA injection)
T8 sequence (P08510 other isoform, or with tags, fused parts or gaps DEL6-46): as the sequence (P08510 other isoform, or with tags, fused parts or gaps DEL6-46/R362Q) above, with Q321R counted along it
Source text: as §4, §5, §6, §7

## CC/C=C\C/C=C\C/C=C\C/C=C\C/C=C\C/C=C\CCC(=O)O [DHA, docosahexaenoic acid]
[1]
  Change of the G(V)-shifting effect on neutralization of R362 (R362Q versus WT): no noticeable change

## CC(C)c1ccc2c(c1)CC[C@H]1[C@](C)(C(=O)O)CCC[C@]21C [DHAA, dehydroabietic acid]
[1]
  Change of the G(V)-shifting effect on neutralization of R362 (R362Q versus WT): increase in effect

## CO/N=C1\C[C@H]2[C@](C)(C(=O)O)CCC[C@]2(C)c2cc(Br)c(C(C)C)cc21 [Wu32]
[1]
  Change of the G(V)-shifting effect on neutralization of R362 (R362Q versus WT): increase in effect

## CC(C)c1ccc2c(c1)CC[C@H]1[C@](C)(COS(=O)(=O)O)CCC[C@]21C [Wu161]
[2]
  GMAX (rel.): 0.47 rel.
[3]
  GMAX (rel.): 0.64 rel.
[4]
  GMAX (rel.): 0.86 rel.
[5]; 100 μM, pH 7.4, M356R/A359R (=2R)
  GMAX (rel.): 1.20 rel.
[5]; 2R motif, pH 7.4, concentration-response (Eq. 3), read-out: EC50 of the G(V) shift (apparent affinity)
  EC50: 36.4 ± 9 µM
[6]
  GMAX (rel.): 0.99 rel.
[7]
  GMAX (rel.): 1.05 rel.
[8]
  GMAX (rel.): 1.19 rel.
[9]; five mutants
  ΔVS3/S4 (contribution of the S3/S4 site in the presence of the 2R mutations): −17 mV
  ΔVS4/pore, R362Q configuration: 0 to −6 mV
  ΔVS4/pore, WT S4/pore site: −7 to −13 mV
[9]; no clear difference between five-mutants and eight-mutants datasets
  ΔVS4/pore, W454A configuration: +2 to −6 mV
[10]; 100 μM, pH 7.4, WT
  GMAX (rel.): 1.03 rel.
[10]
  EC50: 43.7 ± 6.3 µM

## C[C@@]1(COS(=O)(=O)O)CCC[C@]2(C)c3cc(Cl)c(Cl)c(Cl)c3CC[C@@H]12 [Wu181]
[5]; 2R motif versus WT, Wu50 pH 9.0, Wu161 and Wu181 pH 7.4
  Increase of the maximum G(V) shift by the 2R motif: 590%
[5]; 2R motif, pH 7.4, concentration-response (Eq. 3)
  ΔVMAX (maximum G(V) shift): −53.6 ± 4.0 mV
[10]
  EC50: 1.6 ± 0.6 µM
